Reference: US20250368958A1, “CAR-EXPRESSING PLURIPOTENT STEM CELL-DERIVED NEUTROPHILS LOADED WITH DRUG NANOPARTICLES AND USES THEREOF” (Purdue Research Foundation, priority 2022, published 2025)

Columns and labels:
[1] = system: U87MG tumor spheroids; assay: 3D tumor spheroid model; format: cell-based, human; conditions: drug delivered by CAR-neutrophils@R—SiO2 NPs
Description: A three-dimensional (3D) tumor spheroid model was then employed to evaluate the tumor-penetration ability of R—SiO2-TPZ NP-loaded CAR-neutrophils (FIG. 6G). 3D tumor spheroids were generated by the hanging-drop method. Briefly, U87MG cells were suspended in minimum essential medium (MEM) medium with 10% FBS and 0.3% methylcellulose at 2×10^6 cells/mL and deposited onto an inverted lid of 96-well plate as an individual drop using a 20 μL pipettor. The cover lid was then placed back onto the PBS-filled bottom chamber, and the whole plate was incubated at 37° C. and 5% CO2. The hanging drops were monitored daily until cell aggregates were formed in 5-7 days. Each cell aggregate was transferred to a single well of a 24-well plate for subsequent experiments.
To assess the tumor penetration capability of CLTX-CAR neutrophils, 2×10^5 neutrophils/well were added to the wells of 24-well plate and incubated with tumor spheroids. After co-incubation for 24 hours, tumor spheroids were fixed and stained for CD45 and DAPI. For cytotoxicity analysis, both live/dead cell staining and the CytoTox-Glo™ Cytotoxicity Assay kit (Promega Corporation, Madison, WI) were employed. The CytoTox-Glo™ Cytotoxicity Assay was quantified by the SpectraMax iD3 microplate reader (Molecular Devices, Sunnyvale, CA).

[2] = system: tumor-neutrophil co-culture; assay: Tumor lysis with phagocytosis or ROS inhibitor; format: cell-based
Description: FIG. 16A is a volcano map of bulk RNA-Seq analysis of U87MG cells under indicated treatments. FIGS. 16B and 16C show tumor lysis measurements of the indicated groups treated with 5 μM cytochalasin D (CytoD) or 5 mM N-acetylcysteine (NAC), respectively.
RNA sequencing (RNA-seq) analysis on tumor cells was performed to elucidate potential molecular mechanism underlying enhanced anti-tumor cytolysis of neutrophils by CAR expression and R—SiO2-TPZ NP. […] To further understand enhanced anti-tumor activities of R—SiO2-TPZ-loaded CAR-neutrophils, a phagocytosis inhibitor cytochalasin D and a reactive oxygen species (ROS) inhibitor N-acetyl-cysteine (NAC) were applied to the tumor-neutrophil co-culture.

## Nc1nc2cc(CC[C@H]3C[C@@H](n4ccc5c(N)ncnc54)[C@H](O)[C@@H]3O)ccc2cc1Br [JNJ64619187]
[1]
  killing of GBM cells in 3D tumor models: efficiently kill GBM cells

## CC(=O)N[C@@H](CS)C(=O)O [NAC, N-acetyl-cysteine]
[2]; 5 mM
  cytolysis of tumor cells by CAR-neutrophils in presence of inhibitor: significantly reduced

## C=C1[C@@H](C)[C@H]2[C@H](Cc3ccccc3)NC(=O)[C@]23[C@H](OC(C)=O)/C=C/[C@@](C)(O)C(=O)[C@@H](C)C/C=C/[C@H]3[C@@H]1O [cytochalasin D]
[2]; 5 μM
  cytolysis of tumor cells by CAR-neutrophils in presence of inhibitor: significantly reduced
